Ten molecules from patent US20240109865A1, “INDAZOLE COMPOUNDS AS KINASE INHIBITORS” (TYRA BIOSCIENCES, INC., priority 2020, published 2024) can be followed below.

Assay [1] has as its target FGFR3-BAIAP2L1 Ba/F3 cells (Homo sapiens, UniProt P22607). Nature of the assay: Ba/F3 cell viability assay (CellTiter-Glo 2.0), FGFR3-BAIAP2L1 Ba/F3. The note with it: for Ba/F3 FGFR1/FGFR3 Selectivity: FGFR3 > FGFR1 selectivity ratio in Ba/F3 FGFR fusion cell based assays; for IC50: read-out: Ba/F3 Cells FGFR3 (IC50 nM), FGFR3-BAIAP2L1 Ba/F3 cells, 48 hours, Cell Titer Glo 2.0. The assay is classed as cell-based. The procedure, abridged:
(§1)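 Viability read as ATP luminescence (CellTiter-Glo 2.0) after 48 h compound exposure, normalized to DMSO-treated cells and fitted with a 4-parameter curve for IC50. Cells: Ba/F3 dependent on FGFR1-BCR or FGFR3-BAIAP2L1 fusion kinase; top dose 30 μM, 10-fold steps, 9 doses in triplicate.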

The next assay has as its target FGFR3 (Homo sapiens (Human), UniProt P22607). Nature of the assay: Kinase assay, binding constants (Kd), kinase-tagged T7 phage, qPCR. The procedure, abridged:
(§2)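 Using T7 phage lysates from BL21-derived E. coli, compounds at 0.9% final DMSO competed for kinase binding to ligand-bearing magnetic beads. After elution, qPCR measured remaining kinase, and Kds were fitted by non-linear least squares with the Hill slope fixed at −1.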

The target of the next assay is FGFR3 (V555M) (Homo sapiens (Human), UniProt P22607, V555M). The description is as above. The note with it: V555M mutant. The procedure, abridged: as §2
The next assay deals with FGFR2 (Homo sapiens (Human), UniProt P21802). The assay is described as above. The procedure, abridged:
as §2

The next assay has as its target FGFR4 (Homo sapiens (Human), UniProt P22455). The assay is described as above. The procedure, abridged:
as §2

For the next assay, the target named is FGFR1 (Homo sapiens (Human), UniProt P11362). The description is as above. The procedure, abridged: as §2
Assay [2] concerns KG-1 cells (FGFR1-fusion). In words: KG-1 cancer cell line cell viability assay (CellTiter-Glo 2.0). It is filed as cell-based. The note with it: Homo sapiens, 72 hours, Cell Titer Glo 2.0. The source says: (§3) Experimental Purpose: To detect the change of intracellular ATP by Cell Titer-Glo® and to evaluate the inhibitory effect of the compounds on cancer cell lines by determining the in vitro IC50 value of the compounds.
(§4) Cell Titer-Glo® 2.0 Luminescent cell viability assay reagent was purchased from Promega (Madison, WI). RT112/84 and KG-1 cell lines were purchased from American Type Culture Collection (Manassas, VA). UM-UC-14 cell line was purchased from Sigma (St. Louis, MO). RT112/84, UM-UC-14, and KG-1 cells were cultured in RPMI1640 media supplemented with 10% fetal bovine serum. Cultures were maintained at 37° C. in a humidified atmosphere of 5% C02 and 95% air.
(§5) Cell Viability Assay Procedure: Cells were plated in 96-well clear bottom/white plates (Corning #3903) at 10,000 cells/well in 100 μl of media, incubated overnight. The next day, test compound DMSO stock solutions were made at 10 mM and 2 μM final concentration. Compounds were then added to cells in a 9-dose, 10-fold dilution series starting at 30 μM with an HP 300e Digital Dispenser (each dose was applied in triplicate). DMSO was backfilled to each well up to 301 nL total volume of test compound+DMSO, and a total of 301 nL DMSO was added to a control/no test compound well in triplicate. The cells in cell culture plates were incubated with the compounds at 37° C. and 5% C02 for 72 hours. Then 50 μl of Cell Titer Glo 2.0 reagent was added to each well of the cell culture plates. The contents were covered from light and mixed on an orbital shaker at room temperature for 10 min. Luminescence was recorded by a Synergy H1 Microplate Reader (Biotek, Winooski, VT). Cells were assessed as a percentage of DMSO only treated control cells. Curves were plotted and IC50 values were calculated using the GraphPad Prism 8 program based on a sigmoidal dose-response equation (4 parameter).

For another assay, the target named is FGFR1-BCR Ba/F3 cells (Homo sapiens, UniProt P11362). In words: Ba/F3 cell viability assay (CellTiter-Glo 2.0), FGFR1-BCR Ba/F3. The assay is classed as cell-based. The note with it: read-out: Ba/F3 Cells FGFR1 (IC50 nM), 48 hours, Cell Titer Glo 2.0. The procedure, abridged: as §1
Assay [3] concerns RT112/84 cells (FGFR3-fusion). Nature of the assay: RT112/84 cancer cell line cell viability assay (CellTiter-Glo 2.0). The assay is classed as cell-based. The note with it: Homo sapiens, 72 hours, Cell Titer Glo 2.0.
Text: as §3, §4, §5

Sequence of FGFR2 (P21802 22-821): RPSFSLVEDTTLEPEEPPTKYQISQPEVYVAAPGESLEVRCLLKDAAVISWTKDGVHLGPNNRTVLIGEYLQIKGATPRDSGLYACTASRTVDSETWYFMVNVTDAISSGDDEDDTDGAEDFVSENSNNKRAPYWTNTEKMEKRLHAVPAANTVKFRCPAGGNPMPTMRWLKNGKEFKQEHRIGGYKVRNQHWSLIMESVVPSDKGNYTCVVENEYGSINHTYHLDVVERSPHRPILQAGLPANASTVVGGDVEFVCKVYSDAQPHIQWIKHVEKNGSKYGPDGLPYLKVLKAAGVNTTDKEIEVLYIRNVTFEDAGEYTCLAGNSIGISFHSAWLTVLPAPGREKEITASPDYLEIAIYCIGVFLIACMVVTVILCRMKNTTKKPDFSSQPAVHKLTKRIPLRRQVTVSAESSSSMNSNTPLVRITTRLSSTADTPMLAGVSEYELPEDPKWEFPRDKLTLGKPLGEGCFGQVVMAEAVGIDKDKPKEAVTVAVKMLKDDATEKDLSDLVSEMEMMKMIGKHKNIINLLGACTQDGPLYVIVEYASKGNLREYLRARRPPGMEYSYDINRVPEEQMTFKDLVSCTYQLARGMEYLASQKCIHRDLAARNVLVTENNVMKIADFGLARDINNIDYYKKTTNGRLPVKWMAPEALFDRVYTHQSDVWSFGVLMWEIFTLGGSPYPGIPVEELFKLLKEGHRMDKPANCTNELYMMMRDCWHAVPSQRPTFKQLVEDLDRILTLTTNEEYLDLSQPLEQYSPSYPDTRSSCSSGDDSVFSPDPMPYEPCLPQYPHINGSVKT
Sequence of FGFR4 (P22455 22-802): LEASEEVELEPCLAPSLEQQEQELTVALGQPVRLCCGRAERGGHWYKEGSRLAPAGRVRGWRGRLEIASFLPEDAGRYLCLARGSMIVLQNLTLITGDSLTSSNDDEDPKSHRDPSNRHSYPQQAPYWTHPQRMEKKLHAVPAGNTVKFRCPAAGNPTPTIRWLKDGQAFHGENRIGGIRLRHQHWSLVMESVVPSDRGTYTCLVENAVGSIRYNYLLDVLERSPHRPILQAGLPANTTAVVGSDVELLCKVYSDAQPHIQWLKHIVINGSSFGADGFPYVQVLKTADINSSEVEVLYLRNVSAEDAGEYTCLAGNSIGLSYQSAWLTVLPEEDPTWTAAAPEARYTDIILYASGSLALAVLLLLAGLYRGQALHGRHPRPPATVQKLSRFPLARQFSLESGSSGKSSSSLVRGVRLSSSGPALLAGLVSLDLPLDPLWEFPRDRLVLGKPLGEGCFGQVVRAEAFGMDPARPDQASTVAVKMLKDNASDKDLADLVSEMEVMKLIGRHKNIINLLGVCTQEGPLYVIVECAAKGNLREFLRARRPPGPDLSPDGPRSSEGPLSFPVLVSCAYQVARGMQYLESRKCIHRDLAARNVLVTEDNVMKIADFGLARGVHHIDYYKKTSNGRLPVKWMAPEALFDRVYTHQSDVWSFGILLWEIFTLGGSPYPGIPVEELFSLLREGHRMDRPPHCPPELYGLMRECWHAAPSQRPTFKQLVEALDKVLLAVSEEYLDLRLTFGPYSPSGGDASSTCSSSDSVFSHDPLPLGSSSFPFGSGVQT
Sequence of FGFR1 (P11362 22-822): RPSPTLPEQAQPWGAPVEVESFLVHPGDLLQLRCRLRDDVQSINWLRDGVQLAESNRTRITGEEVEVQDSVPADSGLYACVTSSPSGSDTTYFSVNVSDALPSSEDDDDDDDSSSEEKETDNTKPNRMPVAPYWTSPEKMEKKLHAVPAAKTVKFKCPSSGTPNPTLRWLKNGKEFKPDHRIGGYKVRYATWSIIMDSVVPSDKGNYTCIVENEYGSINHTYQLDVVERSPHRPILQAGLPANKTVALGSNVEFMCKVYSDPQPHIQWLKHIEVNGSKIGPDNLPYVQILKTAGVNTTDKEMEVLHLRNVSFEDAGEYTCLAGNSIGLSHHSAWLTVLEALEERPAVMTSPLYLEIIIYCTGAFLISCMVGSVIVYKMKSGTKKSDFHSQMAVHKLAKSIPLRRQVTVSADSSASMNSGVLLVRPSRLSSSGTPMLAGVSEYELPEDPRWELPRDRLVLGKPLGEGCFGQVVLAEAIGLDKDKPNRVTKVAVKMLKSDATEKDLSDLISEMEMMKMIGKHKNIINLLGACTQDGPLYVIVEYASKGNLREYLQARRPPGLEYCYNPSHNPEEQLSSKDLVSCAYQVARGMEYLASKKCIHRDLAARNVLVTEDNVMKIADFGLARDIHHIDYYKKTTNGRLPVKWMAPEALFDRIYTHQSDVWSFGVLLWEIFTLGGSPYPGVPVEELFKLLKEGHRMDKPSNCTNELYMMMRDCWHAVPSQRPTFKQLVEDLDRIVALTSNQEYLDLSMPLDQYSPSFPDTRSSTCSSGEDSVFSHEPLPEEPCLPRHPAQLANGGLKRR
Sequence of FGFR1-BCR Ba/F3 cells (P11362 22-822 limits assumed, change not shown): as the sequence (P11362 22-822) above
Sequence of FGFR3 (V555M) (P22607 23-806 V555M): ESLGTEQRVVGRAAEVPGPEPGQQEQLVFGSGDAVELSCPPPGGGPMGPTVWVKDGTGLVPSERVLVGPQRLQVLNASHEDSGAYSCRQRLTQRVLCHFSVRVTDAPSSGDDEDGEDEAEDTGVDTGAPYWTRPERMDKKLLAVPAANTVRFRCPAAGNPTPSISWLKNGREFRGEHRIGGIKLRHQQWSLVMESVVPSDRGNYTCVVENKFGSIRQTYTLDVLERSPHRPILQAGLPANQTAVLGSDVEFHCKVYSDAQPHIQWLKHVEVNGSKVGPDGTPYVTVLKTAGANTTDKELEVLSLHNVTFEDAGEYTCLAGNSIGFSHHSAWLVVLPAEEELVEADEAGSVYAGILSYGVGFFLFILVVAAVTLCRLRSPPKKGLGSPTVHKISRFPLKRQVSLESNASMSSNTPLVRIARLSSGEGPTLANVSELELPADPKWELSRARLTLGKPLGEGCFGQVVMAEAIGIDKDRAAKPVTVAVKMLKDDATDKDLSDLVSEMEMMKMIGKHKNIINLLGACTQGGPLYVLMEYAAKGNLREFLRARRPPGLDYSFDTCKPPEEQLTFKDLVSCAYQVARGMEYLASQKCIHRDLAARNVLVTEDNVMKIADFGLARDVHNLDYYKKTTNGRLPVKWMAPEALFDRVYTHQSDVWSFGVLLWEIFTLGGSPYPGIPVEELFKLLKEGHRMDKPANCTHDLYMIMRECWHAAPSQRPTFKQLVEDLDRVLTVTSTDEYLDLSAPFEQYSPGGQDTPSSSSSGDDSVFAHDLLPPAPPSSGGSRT
Sequence of FGFR3-BAIAP2L1 Ba/F3 cells (P22607 23-806 limits assumed, change not shown): as the sequence (P22607 23-806 V555M) above, with M533V counted along it
Sequence of FGFR3 (P22607 23-806): as the sequence (P22607 23-806 V555M) above, with M533V counted along it

As for `C[C@@H](Oc1ccc2[nH]nc(-c3ccc(N4CC5(CCN(S(C)(=O)=O)C5)C4)nc3)c2c1)c1c(Cl)cncc1Cl` [Example 115, 5-[(1R)-1-(3,5-dichloro-4-pyridyl)ethoxy]-3-[6-(7-methylsulfonyl-2,7-diazaspiro[3.4]octan-2-yl)-3-pyridyl]-1H-indazole], the “Ba/F3 FGFR1/FGFR3 Selectivity” value in assay [1] was 14. Further, the IC50 is 1 to 20 nM in [1], 100 to 300 nM in [2], 20 to 100 nM at FGFR1-BCR Ba/F3 cells and 1 to 20 nM in assay [3]. The dissociation constant (Kd) at FGFR3, on FGFR3 (V555M), on FGFR2, on FGFR4 and at FGFR1 was 1 to 20 nM throughout.

Turning to `C[C@@H](Oc1ccc2[nH]nc(-c3ccc(N4CC5(CCS(=O)(=O)C5)C4)nc3)c2c1)c1c(Cl)cncc1Cl` [Example 117, 2-[5-[5-[(1R)-1-(3,5-dichloro-4-pyridyl)ethoxy]-1H-indazol-3-yl]-2-pyridyl]-6λ^6-thia-2-azaspiro[3.4]octane 6,6-dioxide], the “Ba/F3 FGFR1/FGFR3 Selectivity” value in assay [1] amounted to 15. Also, the IC50 was in the range of 1 to 20 nM in assay [1], 20 to 100 nM in assay [2], 20 to 100 nM on FGFR1-BCR Ba/F3 cells and 1 to 20 nM in [3]. Also, the Kd on FGFR3, on FGFR3 (V555M), on FGFR2, at FGFR4 and at FGFR1 was 1 to 20 nM each time.

Take `C[C@@H](Oc1ccc2[nH]nc(-c3cnc(N4CC5(C4)CN(S(C)(=O)=O)C5)nc3)c2c1)c1c(Cl)cncc1Cl` [Example 119, 5-[(1R)-1-(3,5-dichloro-4-pyridyl)ethoxy]-3-[2-(2-methylsulfonyl-2,6-diazaspiro[3.3]heptan-6-yl)pyrimidin-5-yl]-1H-indazole]: in assay [1], the “Ba/F3 FGFR1/FGFR3 Selectivity” value was found to be 9. Also, the IC50 in assay [1] lay within 1 to 20 nM; in [2], 100 to 300 nM; at FGFR1-BCR Ba/F3 cells it was 20 to 100 nM; in assay [3] it was 20 to 100 nM. Further, the Kd at FGFR3 lay within 1 to 20 nM; on FGFR3 (V555M) it was 1 to 20 nM; on FGFR2 it was 20 to 100 nM; at FGFR4, 1 to 20 nM; on FGFR1, 20 to 100 nM.

For the molecule `CC(C)S(=O)(=O)N1CC2(CN(c3ncc(-c4n[nH]c5ccc(O[C@H](C)c6c(Cl)cncc6Cl)cc45)cn3)C2)C1` [Example 120, 5-[(1R)-1-(3,5-dichloro-4-pyridyl)ethoxy]-3-[2-(2-isopropylsulfonyl-2,6-diazaspiro[3.3]heptan-6-yl)pyrimidin-5-yl]-1H-indazole], in assay [1], the “Ba/F3 FGFR1/FGFR3 Selectivity” value is recorded as 7. Also, the IC50 was 20 to 100 nM in assay [1], above 300 nM in assay [2], 100 to 300 nM at FGFR1-BCR Ba/F3 cells and 20 to 100 nM in [3]. The Kd at FGFR3 was 1 to 20 nM; at FGFR3 (V555M), 1 to 20 nM; at FGFR2, 20 to 100 nM; at FGFR4 it was 1 to 20 nM; on FGFR1 it was 20 to 100 nM.

Turning to `CCOC(=O)N1CC2(C1)CN(c1ccc(-c3n[nH]c4ccc(O[C@H](C)c5c(Cl)cncc5Cl)cc34)cn1)C2` [Example 121, ethyl 6-[5-[5-[(1R)-1-(3,5-dichloro-4-pyridyl)ethoxy]-1H-indazol-3-yl]-2-pyridyl]-2,6-diazaspiro[3.3]heptane-2-carboxylate], in assay [1], the “Ba/F3 FGFR1/FGFR3 Selectivity” value was found to be 14. The IC50 in assay [1] is 1 to 20 nM; in assay [2], 100 to 300 nM; on FGFR1-BCR Ba/F3 cells, 100 to 300 nM; in assay [3], 1 to 20 nM. The Kd lay in the range of 1 to 20 nM at FGFR3; 1 to 20 nM at FGFR3 (V555M); 20 to 100 nM at FGFR2; 1 to 20 nM at FGFR4; 20 to 100 nM on FGFR1.

Turning to `C[C@@H](Oc1ccc2[nH]nc(-c3cnc(N4CC5(CCS(=O)(=O)C5)C4)nc3)c2c1)c1c(Cl)cncc1Cl` [Example 122, 2-[5-[5-[(1R)-1-(3,5-dichloro-4-pyridyl)ethoxy]-1H-indazol-3-yl]pyrimidin-2-yl]-6λ^6-thia-2-azaspiro[3.4]octane 6,6-dioxide], in assay [1], the “Ba/F3 FGFR1/FGFR3 Selectivity” value worked out at 7. In addition, the IC50 in assay [1] lay in the range of 1 to 20 nM; in assay [2], 100 to 300 nM; at FGFR1-BCR Ba/F3 cells, 20 to 100 nM; in assay [3], 1 to 20 nM. In addition, the Kd at FGFR3 was 1 to 20 nM; on FGFR3 (V555M) it was 1 to 20 nM; on FGFR2 it was 20 to 100 nM; at FGFR4, 1 to 20 nM; at FGFR1, 1 to 20 nM.

Regarding `COC(=O)N1CC2(C1)CN(c1ccc(-c3n[nH]c4ccc(O[C@H](C)c5c(Cl)cncc5Cl)cc34)cn1)C2` [Example 123, methyl 6-[5-[5-[(1R)-1-(3,5-dichloro-4-pyridyl)ethoxy]-1H-indazol-3-yl]-2-pyridyl]-2,6-diazaspiro[3.3]heptane-2-carboxylate], the “Ba/F3 FGFR1/FGFR3 Selectivity” value in assay [1] worked out at 15. The IC50 fell in the range of 1 to 20 nM in assay [1], 100 to 300 nM in assay [2], 20 to 100 nM on FGFR1-BCR Ba/F3 cells and 1 to 20 nM in assay [3]. For the same molecule, the Kd at FGFR3, on FGFR3 (V555M), on FGFR2, on FGFR4 and on FGFR1 was 1 to 20 nM throughout.

As to `CCS(=O)(=O)N1CC2(CN(c3ccc(-c4n[nH]c5ccc(O[C@H](C)c6c(Cl)cncc6Cl)cc45)cn3)C2)C1` [Example 124, 5-[(1R)-1-(3,5-dichloro-4-pyridyl)ethoxy]-3-[6-(2-ethylsulfonyl-2,6-diazaspiro[3.3]heptan-6-yl)-3-pyridyl]-1H-indazole], the “Ba/F3 FGFR1/FGFR3 Selectivity” value in assay [1] is given as 17. Further, the IC50 in assay [1] fell in the range of 1 to 20 nM; in assay [2], 100 to 300 nM; on FGFR1-BCR Ba/F3 cells, 100 to 300 nM; in assay [3] it was 1 to 20 nM. Further, the Kd is 1 to 20 nM on FGFR3; 1 to 20 nM at FGFR3 (V555M); 20 to 100 nM at FGFR2; 1 to 20 nM on FGFR4; 20 to 100 nM at FGFR1.

As for `COC(=O)N1CCC2(CC1)CN(c1ccc(-c3n[nH]c4ccc(O[C@H](C)c5c(Cl)cncc5Cl)cc34)cn1)C2` [Example 125, methyl 2-[5-[5-[(1R)-1-(3,5-dichloro-4-pyridyl)ethoxy]-1H-indazol-3-yl]-2-pyridyl]-2,7-diazaspiro[3.5]nonane-7-carboxylate], in [1], the “Ba/F3 FGFR1/FGFR3 Selectivity” value was found to be 16. In addition, the IC50 was 1 to 20 nM in assay [1], 100 to 300 nM in [2], 100 to 300 nM at FGFR1-BCR Ba/F3 cells and 1 to 20 nM in [3]. For the same molecule, the Kd lay within 1 to 20 nM on FGFR3; 1 to 20 nM on FGFR3 (V555M); 20 to 100 nM at FGFR2; 1 to 20 nM at FGFR4; 20 to 100 nM at FGFR1.

As to `C[C@@H](Oc1ccc2[nH]nc(-c3cnc(N4CCC5(CCS(=O)(=O)C5)C4)nc3)c2c1)c1c(Cl)cncc1Cl` (stereo partly drawn) [Example 127, 7-[5-[5-[(1R)-1-(3,5-dichloro-4-pyridyl)ethoxy]-1H-indazol-3-yl]pyrimidin-2-yl]-2λ^6-thia-7-azaspiro[4.4]nonane 2,2-dioxide], in assay [1], the “Ba/F3 FGFR1/FGFR3 Selectivity” value came to 11. Also, the IC50 was 1 to 20 nM in assay [1], 100 to 300 nM in [2], 100 to 300 nM at FGFR1-BCR Ba/F3 cells and 20 to 100 nM in assay [3]. In addition, the Kd at FGFR3 lay in the range of 1 to 20 nM; at FGFR3 (V555M), 1 to 20 nM; on FGFR2, 20 to 100 nM; on FGFR4, 1 to 20 nM; at FGFR1, 20 to 100 nM.
